“And” between values parts separate entries of the source, which are not always exact repeats. Equal values may be shown once.
Columns and labels:
[1] = molecular target: T1, α1A receptor (Homo sapiens, UniProt P35348); assay: α1A receptor affinity, [3H]-Prazosin binding to membranes; conditions: Cheng Prusoff
T1 construct: expressed in transfected cells
T1 sequence (P35348 1-466): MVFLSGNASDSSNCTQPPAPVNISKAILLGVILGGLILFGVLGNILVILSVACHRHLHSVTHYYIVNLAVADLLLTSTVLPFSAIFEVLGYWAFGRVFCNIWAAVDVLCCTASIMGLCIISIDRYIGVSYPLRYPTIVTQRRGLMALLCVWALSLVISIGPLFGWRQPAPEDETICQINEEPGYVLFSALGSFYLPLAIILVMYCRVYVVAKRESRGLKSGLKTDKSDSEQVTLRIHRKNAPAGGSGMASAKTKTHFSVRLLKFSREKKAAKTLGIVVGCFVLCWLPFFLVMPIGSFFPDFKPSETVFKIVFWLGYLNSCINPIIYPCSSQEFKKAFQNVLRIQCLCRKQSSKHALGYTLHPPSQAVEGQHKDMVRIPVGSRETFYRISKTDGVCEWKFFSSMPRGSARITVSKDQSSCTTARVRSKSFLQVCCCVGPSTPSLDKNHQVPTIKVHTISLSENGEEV
Experimental: On the day of the experiments membranes (see below for description of membrane preparation) are thawed and homogenized in buffer using an ultra turrax and diluted to the desired concentration (5 μg/well˜5 μg/900 μl, store on ice until use).
The experiment is initiated by mixing of 50 μl test compound, 50 μl [^3H]-Prazosin and 900 μl membranes, and the mixture is incubated for 20 minutes at 25° C. Non-specific binding is determined in the presence of 10 μM WB-4101 and the total binding is determined in the presence of buffer. After the incubation, bound ligand is separated from unbound by filtration through Unifilter GF/B, presoaked in 0.1% PEI for 30 minutes, using a Tomtec Cell Harvester program (D4.2 . . . 4) 96 well. Filters are washed 3 times with 1 ml ice-cold buffer, dried at 50° C. and 35 μl scintillation liquid/well is added to the filters. Bound radioactivity is counted in a Wallac OY 1450 MicroBeta. The affinity (Ki 10 nM) is calculated from Y=100/(1+10^(X-logIC50^)) where Y denotes % binding and X denotes the concentration of compound. […] Ki was calculated from the Cheng Prusoff equation Ki=(IC50/(1+([L]/Kd))
Cells were grown to 95% confluence, washed twice with buffer (50 mM Tris pH 7.7, 125 mM NaCl) and detached by scraping in a volume of 10 ml buffer/160 cm^2. […] Protein concentration was measured with BCA™ (Pierce #23223+23224).

[2] = molecular target: T2, human alpha1A-7 receptors (Homo sapiens, UniProt P35348); assay: α1A functional assay, adrenaline evoked Ca2+ release in CHO cells (FLIPR); type: cell-based; conditions: CHO cells expressing human alpha1A-7 receptors
T2 sequence (P35348 1-423 limits assumed): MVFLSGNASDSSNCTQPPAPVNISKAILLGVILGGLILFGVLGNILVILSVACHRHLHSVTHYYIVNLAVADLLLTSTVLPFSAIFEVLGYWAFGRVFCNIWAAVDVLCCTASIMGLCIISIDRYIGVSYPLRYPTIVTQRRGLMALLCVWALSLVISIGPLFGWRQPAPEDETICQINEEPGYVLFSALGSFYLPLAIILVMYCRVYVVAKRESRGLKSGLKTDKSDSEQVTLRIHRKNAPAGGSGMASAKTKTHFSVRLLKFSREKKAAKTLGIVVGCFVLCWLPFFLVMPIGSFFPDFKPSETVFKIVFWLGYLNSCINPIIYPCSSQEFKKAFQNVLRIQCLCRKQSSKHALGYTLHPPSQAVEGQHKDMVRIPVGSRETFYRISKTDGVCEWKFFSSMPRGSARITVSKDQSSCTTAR
Experimental: All cells were cultured in DMEM medium supplemented with 10% BCS, 4 mM L-glutamine (or 2 mM in the case of COS-7), and 100 units/ml penicillin plus 100 μg/ml streptomycin, at 37° C., in 5% CO2.
Twenty-four hours prior to assays, CHO cells expressing the human alpha1A-7 receptors were seeded into 384-well black wall microtiter plates coated with poly-D-lysine. Culture medium was aspirated and cells were dye-loaded with 1.5 μM Fluo-4 in assay buffer composed of Hank's Balanced Salt Solution (138 mM NaCl, 5 mM KCl, 1.3 mM CaCl2, 0.5 mM MgCl2, 0.4 mM MgSO4, 0.3 mM KH2PO4, 0.3 mM Na2HPO4, 5.6 mM glucose) plus 20 mM HEPES pH 7.4, 0.05% BSA and 2.5 mM probenicid (50 μl/well) for 1 hour in 5% CO2 at 37° C. After excess dye was discarded, cells were washed in assay buffer and layered with a final volume equal to 45 μl/well (or 30 ul/well for antagonist assay). […] Laser excitation energy was adjusted so that basal fluorescence readings were approximately 8,000 relative fluorescent units (RFU). Cells were then stimulated at room temperature with agonists diluted in assay buffer (15 μl), and RFU were measured at 1.5 second intervals over a period of 2.5 min. Maximum change in fluorescence was calculated for each well. Concentration-response curves derived from the maximum change in fluorescence were analyzed by nonlinear regression (Hill equation). […]

[3] = tested on: Rats; assay: Impact on sleep architecture, EEG/EMG in rats; type: in vivo, rat; conditions: for % of time spent in REM / % of time spent in SWS / % of time spent in Wake: second hour of recording; for sleep latency: time from injection until first consolidated sleeping episode
Experimental: Rats were implanted with EEG and EMG electrodes to monitor the brain electrical activity and the muscle electrical activity, respectively. The electrodes were connected to a radio transmitter allowing a continuous collection of activity data from freely moving, undisturbed and home-caged animals. The EEG and EMG data were visually scored to determine the arousal states wake, SWS and REM sleep. A group of 10 rats were administered vehicle or the compound of the present invention corresponding to 0.4 mg/kg and 4 mg/kg of the free base. A William's square cross over design was applied so that each animal receives each treatment once.

[4] = molecular target: 5-HT2A receptors (Homo sapiens, UniProt P28223); assay: 5-HT2A functional assay, 5-HT evoked Ca2+ release in CHO cells (FLIPR)
Chain of 5-HT2A receptors (P28223 whole entry): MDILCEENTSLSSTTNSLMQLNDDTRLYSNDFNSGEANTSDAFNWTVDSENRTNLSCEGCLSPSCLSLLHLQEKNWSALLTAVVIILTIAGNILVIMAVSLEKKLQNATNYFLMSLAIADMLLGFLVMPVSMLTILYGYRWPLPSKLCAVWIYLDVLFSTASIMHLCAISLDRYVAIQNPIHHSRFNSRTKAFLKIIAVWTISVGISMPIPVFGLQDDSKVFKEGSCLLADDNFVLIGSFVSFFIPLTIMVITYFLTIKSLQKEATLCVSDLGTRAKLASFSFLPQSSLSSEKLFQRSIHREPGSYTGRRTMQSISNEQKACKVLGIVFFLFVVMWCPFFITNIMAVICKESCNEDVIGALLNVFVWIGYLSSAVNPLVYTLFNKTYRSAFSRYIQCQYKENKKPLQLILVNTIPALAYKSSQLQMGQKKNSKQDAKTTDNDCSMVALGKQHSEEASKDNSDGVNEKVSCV
Experimental: The experiment was carried out as follows. 2 or 3 days before the experiment CHO cells expressing approximately 250 fmol/mg 5-HT2A receptors are plated at a density sufficient to yield a mono-confluent layer on the day of the experiment. […] Lacer intensity was set to a suitable level to obtain basal values of approximately 8000-10000 fluorescence units. The variation in basal fluorescence should be less than 10%. […] Test substances are added to the cells 5 minutes before the 5-HT.

SMILES: CNCc1ccccc1Sc1c[nH]c2cc(F)ccc12 [compounds of the present invention, [2-(6-fluoro-1H-indol-3-ylsulfanyl)benzyl]methyl amine]
- Ki [1]: 14 nM and 10 nM
- Kb [2]: 64 nM
- % of time spent in REM ([3]; 0.4 mg/kg free base): 0.00%
- % of time spent in SWS ([3]; 0.4 mg/kg free base): 62.08%
- % of time spent in Wake ([3]; 0.4 mg/kg free base): 37.92%
- sleep latency ([3]; 0.4 mg/kg): 26.43 min
- % of time spent in REM ([3]; 4.0 mg/kg free base): 0.00%
- % of time spent in SWS ([3]; 4.0 mg/kg free base): 69.97%
- % of time spent in Wake ([3]; 4.0 mg/kg free base): 30.03%
- sleep latency ([3]; 4.0 mg/kg): 20.62 min
- Kb [4]: 130 nM
- pA2 ([4]; schild analysis, CHO cells expressing 5-HT2A, 5-HT curves with 150, 400, 1500, 4000 nM compound): 6.88

— US8138220B2, “[2-(6-fluoro-1H-indol-3-ylsulfanyl)benzyl]methyl amine for the treatment of affective disorders” (H. Lundbeck A/S, priority 2006, dated 2012)
